We go through one molecule from article PMC9124866, “Structure-Activity Relationships of Dopamine Transporter Pharmacological Chaperones” (Frontiers in Cellular Neuroscience, 2022).

One assay addresses YFP-HA-βlac-DAT (Homo sapiens, UniProt Q01959). In words: β-lactamase (βlac) surface expression assay. It is filed as cell-based. The following applies: HEK293, read-out: EMax (%), WT DAT surface expression, HEK cells expressing YFP-HA-βlac-DAT, overnight (16 h) incubation, up to 100 μM, normalized to vehicle; assumed effective EMax. Here is the method: The βlac surface expression assay was performed by following the method outlined in [Lam et al. (2013)] and [Beerepoot et al. (2015], [2016)]. The assay substrate nitrocefin (BD biosciences) was dissolved in dimethyl sulfoxide (DMSO) at a concentration of 10 mM and frozen at −80°C. Immediately before use, it was thawed and diluted to a final concentration of 100 μM in phosphate buffered saline (PBS). Cells (1 × 10^5/well) were seeded into a poly-D-lysine-coated 48-well plate and incubated for 24 h, prior to drug treatment. Drugs were added to individual wells at varying concentrations and incubated for 16 h. Subsequently, the media was aspirated, and the cells were washed twice with PBS. After removal of the final PBS wash, 200 μL of the nitrocefin solution was added to each well and the absorbance was immediately read. The EPOCH microplate spectrophotometer (BioTek) was used to measure absorbance (486 nm) for each well every minute for 30 min. The rate of reaction (slope of the curve) was used as the readout for the assay ([Beerepoot et al., 2015]). To determine suitable concentration ranges for each drug, they were dissolved in PBS or DMSO at the highest concentration possible. From here, the solutions were serial diluted 1/10 to yield 8 different concentrations. βLAC cells were then treated with the varying drug concentrations and cell viability was recorded using light microscopy. For additional measure, nitrocefin was added and the absorbance was read. For certain cases, Trypan Blue was used to quantitatively differentiate increased cell death from reduced cell division. […] Five or six doses were generally used in subsequent dosing experiments, starting at the highest non-toxic concentration.
Data analysis was performed using GraphPad Prism (GraphPad Software, La Jolla, CA). Linear regression analysis was performed on βLAC time points to determine the slope, thus the rate of reaction, for comparison. Furthermore, the slope was also used to determine the degree of dopamine uptake in the dopamine uptake assays. Non-linear regression, fitting to the log(agonist) vs. response and log(inhibitor) vs. response model curve, was used to determine dose-response relationships of surface expression and uptake assays, respectively. One-way ANOVA with Dunnett’s post hoc-test was used for the β-lactamase assay and one-way ANOVA with Bonferroni correction was used for western blot analysis.
Among these were RTI-1, RTI-2, RTI-5, RTI-6, RTI-11, RTI-20, and PAL-1007. […] The EMax values of all the analyzed drugs are included in Figure 1.
The pharmacological chaperone ability of the 15 ibogaine and tryptamine analogs, shown in Figure 3, were measured using the βlac surface expression assay. HEK cells expressing YFP-HA-βlac-DAT were incubated overnight with these compounds at concentrations varying by log and half-log dilutions, starting at 100 μM final concentration. […] Furthermore, it was important to determine whether the β-carboline analogs could also elicit a chaperone effect because they are not classified as DAT ligands ([Cao et al., 2007]). […] Removing the nitrogen from the ring reduced efficacy as observed with frovatriptan (103 ± 1.4%). […] Evodiamine (54 ± 1.7%) had no chaperone ability and caused a substantial reduction in the surface expression of DAT. Dose-response curves were generated to assess the pharmacological chaperone potencies of select compounds (Figure 4).

A further assay concerns the target T1, K590A DAT (Homo sapiens, UniProt Q01959, K590A).
T1 construct: expressed in transfected cells; host or cells: HEK293
In words: Western blot of mature K590A DAT protein levels. It is filed as cell-based. The following applies: overnight treatment. The protocol: Cells (1 × 10^6 cells/well) were seeded onto a 6-well plate and incubated for 24 h. Cells were then treated with drugs and incubated for 16 h. After the incubation period, cells were lysed in RIPA buffer supplemented with protease inhibitors (working concentrations: pepstatin A, 5 μg/mL; leupeptin, 10 μg/mL; aprotinin, 1.5 μg/mL; benzamidine, 0.1 μg/mL; PMSF, 0.1 mM) on ice. At 4°C, cell lysates were gently shaken for 15 min followed by centrifugation at 15,000 rpm for 15 min to pellet debris. The Pierce BCA protein assay kit (Thermo Fisher Scientific, Canada) was used to determine the protein concentration of the supernatant. To reach a concentration of 40 μg of protein per 20 μL, samples were diluted in fresh RIPA buffer with 12.5% Laemmli sample buffer and 2.5% β-Mercaptoethanol prior to being heated to 55°C. The protein was then loaded on a 7.5 or 10% SDS-PAGE gel and run at 100 V for approximately an hour or until the dye front reached the bottom of the gel. Next, protein was transferred to a PVDF membrane at 22 V for 16 h or 100 V for 1 h. Blots were blocked with LI-COR blocking buffer for 1 h and incubated for 1 h at room temperature with rabbit anti-GFP (1:1,000 dilution; Life Technologies, cat#A11122). After washing three times with TBST, blots were incubated with goat anti-rabbit IRDye-680RD secondary antibody (1:15,000; LI-COR, cat#926-68071). As a loading control, blots were incubated with mouse anti-GAPDH (1:5,000, Sigma-Aldrich, Canada, cat#G8795) prior to secondary antibody goat anti-mouse IRDye-800GR (1:5,000 dilution, Rockland, Limerick, PA, cat#610-132-007). All antibodies were diluted in LI-COR blocking buffer. Additionally, REVERT total protein staining (LI-COR, Lincoln, NE) was used as a loading control. […] Mature, fully glycosylated DAT (mDAT = 110 kDa) and immature, ER-resident DAT (iDAT = 75 kDa) were visualized using the Odyssey Imaging System (LI-COR, Lincoln, NE) and Image Studio Version 5.2 software (Supplementary Figure 1).
We next assessed whether drugs that increase DAT surface expression also increase total protein levels of DAT. Cells expressing YFP-HA-DAT were incubated with select test compounds and DAT protein levels were examined by western blot. The effects of the compounds were assessed on WT DAT and K590A DAT. The K590A mutant is a well-characterized ER-retained, trafficking-deficient DAT mutant ([Miranda et al., 2004]) that can be rescued by pharmacological chaperones ([Beerepoot et al., 2016]).
FIGURE 5 Effect of noribogaine, tetrahydroharmine, PAL-594, bicifadine, and RTI-20 on WT and K590A DAT expression. […] (B) Quantification of WT mDAT protein levels. […] (D) Quantification of K590A mDAT protein levels. […]
A general note: In western blotting, separated proteins are transferred to a membrane and probed.

Chain of YFP-HA-βlac-DAT (Q01959 1-171 limits assumed): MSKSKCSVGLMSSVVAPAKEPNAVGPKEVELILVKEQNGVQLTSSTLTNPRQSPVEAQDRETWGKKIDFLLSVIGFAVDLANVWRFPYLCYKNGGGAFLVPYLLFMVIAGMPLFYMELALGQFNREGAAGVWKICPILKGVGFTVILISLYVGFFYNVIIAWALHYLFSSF
Chain of YFP-HA-βlac-DAT (Q01959 237-620 limits assumed): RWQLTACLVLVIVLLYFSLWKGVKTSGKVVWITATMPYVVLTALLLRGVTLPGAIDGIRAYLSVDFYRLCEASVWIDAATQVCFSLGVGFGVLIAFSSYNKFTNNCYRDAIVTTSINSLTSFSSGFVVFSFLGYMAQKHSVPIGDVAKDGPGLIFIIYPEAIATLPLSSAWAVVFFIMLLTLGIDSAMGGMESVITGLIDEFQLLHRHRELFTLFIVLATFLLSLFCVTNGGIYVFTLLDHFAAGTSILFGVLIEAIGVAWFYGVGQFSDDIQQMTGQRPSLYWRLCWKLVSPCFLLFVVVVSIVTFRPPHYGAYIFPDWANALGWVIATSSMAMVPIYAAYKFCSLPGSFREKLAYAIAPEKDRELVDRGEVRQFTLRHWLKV
T1 sequence (Q01959 whole entry K590A): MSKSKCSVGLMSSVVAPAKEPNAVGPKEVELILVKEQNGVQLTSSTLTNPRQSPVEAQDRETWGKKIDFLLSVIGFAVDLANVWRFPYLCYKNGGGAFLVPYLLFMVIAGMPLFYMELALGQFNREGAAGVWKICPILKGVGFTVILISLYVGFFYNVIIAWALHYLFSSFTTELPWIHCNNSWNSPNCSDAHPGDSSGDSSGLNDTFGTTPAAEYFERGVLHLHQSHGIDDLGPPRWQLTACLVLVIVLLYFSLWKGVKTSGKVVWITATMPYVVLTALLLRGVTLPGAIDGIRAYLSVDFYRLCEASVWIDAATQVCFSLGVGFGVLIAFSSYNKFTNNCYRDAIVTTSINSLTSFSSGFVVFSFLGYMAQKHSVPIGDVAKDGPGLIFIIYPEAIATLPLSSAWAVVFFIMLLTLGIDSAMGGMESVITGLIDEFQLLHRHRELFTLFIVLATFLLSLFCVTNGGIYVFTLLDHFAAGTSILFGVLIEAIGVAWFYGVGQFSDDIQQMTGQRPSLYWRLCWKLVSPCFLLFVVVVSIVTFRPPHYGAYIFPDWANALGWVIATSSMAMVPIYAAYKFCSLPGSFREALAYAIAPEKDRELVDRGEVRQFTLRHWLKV

Broadly, the Emax is the maximal effect, on the per cent scale that the assay sets. With `CCC1CC2CC3c4[nH]c5ccc(O)cc5c4CCN(C2)C13` (centres unmarked) [Noribogaine, reference compound], the Emax on YFP-HA-βlac-DAT worked out at 251 ± 17.8%. Also, at K590A DAT, the “K590A DAT (mDAT) protein levels” value is recorded as “statistically significant effect”.
